Results on 20 compounds are retold here after US11618746B2, “Inhibitors of APOL1 and methods of using same” (Vertex Pharmaceuticals Incorporated, priority 2018, dated 2023).

Molecules are shown by their SMILES.

The target of the assay is T1, G1 APOL1 (Homo sapiens, UniProt O14791, I384M/S342G).
T1 construct: expressed in transfected cells
T1 sequence (O14791 28-398 S342G/I384M): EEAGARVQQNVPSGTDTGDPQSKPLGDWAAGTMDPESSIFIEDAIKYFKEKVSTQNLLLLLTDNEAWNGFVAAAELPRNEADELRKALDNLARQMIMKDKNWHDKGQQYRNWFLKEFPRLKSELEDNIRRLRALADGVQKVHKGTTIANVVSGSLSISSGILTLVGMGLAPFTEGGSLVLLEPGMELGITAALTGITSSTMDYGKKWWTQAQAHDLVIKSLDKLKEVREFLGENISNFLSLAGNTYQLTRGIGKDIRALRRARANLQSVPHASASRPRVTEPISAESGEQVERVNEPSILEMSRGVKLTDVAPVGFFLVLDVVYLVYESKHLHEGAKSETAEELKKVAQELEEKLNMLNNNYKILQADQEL
Description: Acute APOL1 Thallium Assay with inducible stable clones of HEK 293 cells. Type of assay: cell-based. The conditions noted are these: HEK T-Rex tetracycline-inducible cells expressing G1 APOL1 (clone G1 DC3.25); inhibition of thallium flux rate. The gist of the method: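 HEK293 T-Rex cells with tetracycline-inducible G1 APOL1 (clone DC3.25), 26000 cells per well, induced with tetracycline at plating and incubated at 37° C, 5% CO2. Pore activity read on FLIPR as Tl+ influx via fluorescence of AM-ester-loaded thallium-sensitive dye.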
As for `O=C(CCc1c(-c2ccc(F)cc2)[nH]c2c(F)cc(F)cc12)N[C@H]1CCNC1=O` [Compound 3, 3-[5,7-difluoro-2-(4-fluorophenyl)-1H-indol-3-yl]-N-[(3S)-2-oxopyrrolidin-3-yl]propanamide], the IC50 (in general, the concentration at which inhibition is half-maximal) is less than 250 nM.

For the compound `O=C(CCc1c(-c2ccccc2)[nH]c2ccccc12)N[C@@H]1C(=O)NC[C@H]1O` [Compound 86], the IC50 was less than 250 nM.

`O=C(CCc1c(-c2ccc(F)cc2)[nH]c2c(F)cc(C(F)(F)F)cc12)N[C@@H]1C(=O)NC[C@H]1O` [Compound 101, 3-[7-fluoro-2-(4-fluorophenyl)-5-(trifluoromethyl)-1H-indol-3-yl]-N-[(3S,4R)-4-hydroxy-2-oxo-pyrrolidin-3-yl]propanamide] yielded an IC50 of less than 250 nM.

On to `O=C(CCc1c(-c2ccc(F)cc2)[nH]c2ccc(OCc3ccccc3)cc12)N[C@H]1CCNC1=O` [Compound 54, 3-[5-benzyloxy-2-(4-fluorophenyl)-1H-indol-3-yl]-N-[(3S)-2-oxopyrrolidin-3-yl]propanamide], for which the IC50 fell in the range of 250 to 1000 nM.

`Cc1cc(-c2[nH]c3ccccc3c2CCC(=O)N[C@@H]2C(=O)NC[C@H]2O)ccc1F` [Compound 125] displayed an IC50 of less than 250 nM.

Take `O=C(CCc1c(-c2ccc(F)cc2)[nH]c2c(OC(F)F)cc(F)cc12)N[C@@H]1C(=O)NC[C@H]1O` [Compound 107]: the IC50 is less than 250 nM.

`O=C(CCc1c(-c2ccc(F)cc2)[nH]c2c(F)c(F)ccc12)N[C@@H]1C(=O)NC[C@H]1O` [Compound 58] showed an IC50 of less than 250 nM.

`O=C(CCc1c(-c2ccccc2)[nH]c2c(C(F)(F)F)cccc12)N[C@@H]1C(=O)NC[C@H]1O` [Compound 112, N-[(3S,4R)-4-hydroxy-2-oxo-pyrrolidin-3-yl]-3-[2-phenyl-7-(trifluoromethyl)-1H-indol-3-yl]propanamide] showed an IC50 of 250 to 1000 nM.

With `O=C1C[C@@H](NC(=O)CCc2c(-c3ccc(F)cc3)[nH]c3c(F)cc(F)cc23)C(=O)N1` [Compound 16], the IC50 fell in the range of 250 to 1000 nM.

The compound `O=C(CCc1c(-c2ccc(Cl)cc2)[nH]c2ccccc12)N[C@@H]1C(=O)NC[C@H]1O` [Compound 128, 3-[2-(4-chlorophenyl)-1H-indol-3-yl]-N-[(3S,4R)-4-hydroxy-2-oxo-pyrrolidin-3-yl]propanamide] gave an IC50 of less than 250 nM.

In turn, `O=C(CCc1c(-c2ccc(F)cc2)[nH]c2ccc(F)cc12)N[C@H]1CCNC1=O` [Compound 47] registered an IC50 of less than 250 nM.

With `O=C(CCc1c(-c2ccccc2)[nH]c2cc(F)c(F)cc12)N[C@@H]1C(=O)NC[C@H]1O` [Compound 82], the IC50 was less than 250 nM.

The compound `O=C(CCc1c(-c2ccc(C(F)(F)F)cc2)[nH]c2ccccc12)N[C@@H]1C(=O)NC[C@H]1O` [Compound 123] gave an IC50 of less than 250 nM.

`O=C(CCc1c(-c2ccccc2)[nH]c2c(F)cc(F)cc12)N[C@@H]1C(=O)NC[C@H]1O` [Compound 26] registered an IC50 of less than 250 nM.

Take `Cc1cc(F)c2[nH]c(-c3ccc(F)cc3)c(CCC(=O)N[C@@H]3C(=O)NC[C@H]3O)c2c1` [Compound 29]: the IC50 was less than 250 nM.

`O=C(CCc1c(-c2ccc(OC(F)(F)F)cc2)[nH]c2ccccc12)N[C@@H]1C(=O)NC[C@H]1O` [Compound 118] displayed an IC50 of less than 250 nM.

Consider `O=C1NC[C@@H](O)[C@@H]1NC(=O)C(F)(F)Cc1c(-c2ccc(F)cc2)[nH]c2c(F)cc(F)cc12` [Compound 95, 3-[5,7-difluoro-2-(4-fluorophenyl)-1H-indol-3-yl]-2,2-difluoro-N-[(3S,4R)-4-hydroxy-2-oxo-pyrrolidin-3-yl]propanamide], for which the IC50 is less than 250 nM.

Consider `O=C(CCc1c(-c2ccc(F)cc2)[nH]c2ccc(F)cc12)N[C@@H]1C(=O)NC[C@H]1O` [Compound 46], for which the IC50 was less than 250 nM.

As to `O=C(CCc1c(-c2ccc(F)cc2)[nH]c2c(F)ccc(F)c12)N[C@H]1CCNC1=O` [Compound 78], the IC50 is more than 1000 nM.

`O=C(CCc1c(-c2ccc(F)cc2)[nH]c2c(Cl)cccc12)N[C@H]1CCNC1=O` [Compound 72]: the IC50 was less than 250 nM.
